Measured values from patent publication US7141170B2, “Halogenated solvent remediation” (North Wind, Inc., priority 2004, dated 2006).

Key:
[1] = Surface tension of electron donor solutions (pendant drop); assay type: physicochemical; details: for change in surface tension: 0% ethyl lactate
Description: Two fundamental properties used to screen the co-solvent or surfactant properties of a solution are surface tension and interfacial tension. Surface tension measures the force per unit length along the interface between a liquid and air due to its tension. When a co-solvent or surfactant is present in an aqueous liquid at increasing concentrations, the surface tension of that liquid decreases. Interfacial tension is similar to surface tension except that it measures the force per unit length along the interface between two liquid phases arising from the surface free energy. The higher the interfacial tension between two liquids, the less likely one is to dissolve into the other, and the more difficult it is for one to be transported within the other. Thus, perhaps the most significant property of co-solvents and surfactants in the context of chlorinated solvent remediation is that they decrease the interfacial tension between the aqueous phase (groundwater) and the organic nonaqueous phase so that the solubility (or mobility for order-of-magnitude decreases) of the nonaqueous phase is enhanced. The laboratory study performed to confirm the co-solvent properties of the high concentration electron donor solution measured the surface tension of electron donor solutions at various concentrations. Next, interfacial tensions between the same electron donor solutions and nonaqueous phase TCE were measured. Two types of electron donor solutions were used. […] Surface and interfacial tension measurements were made using the pendant drop method (M. J. Rosen, ed., Structure/Performance Relationships in Surfactants, American Chemical Society, Washington […]. Arundel, The Profile Area of Pendant Drops, 82 J. Phys. Chem. 898 (1978)) coupled with real-time video imaging (M. D. Herd et al., Interfacial Tensions of Microbial Surfactants Determined by Real-Time Video Imaging of Pendant Drops, Proceedings paper number SPE/DOE 24206 513-519, SPE/DOE Eighth Symposium on Enhanced Oil Recovery, Tulsa, Okla. (1992)).

[2] = test system: TCE-dechlorinating culture derived from TAN-25 groundwater; assay: Microcosm dechlorination and electron donor utilization study; assay type: cell-based
Description: Dechlorination studies were carried out to determine if whey powder solutions facilitate complete degradation of target contaminants at reasonable rates. Microcosms were constructed in triplicate sets. These microcosms were amended periodically with whey powder and TCE and analyzed monthly for TCE, its reductive degradation products, electron donor (as both COD and volatile fatty acids (VFAs)), redox, and pH.
An existing laboratory, sodium lactate-fed culture, derived from TAN-25 groundwater undergoing complete anaerobic reductive dechlorination (ARD) of TCE to ethene, was used to inoculate the cultures. Fresh TAN groundwater from the source area was also used to ensure that microbial populations that have been lost as a result of laboratory conditions were present for the evaluation. Serum vials (160 mL) were used as microcosms to grow the cultures. Prior to inoculation, the microcosms, along with all other culture-contact supplies, were autoclaved at 121° C. for 20 minutes and cooled to room temperature. Inoculation of the microcosms was done in a glove box containing nitrogen (95%), carbon dioxide (2.5%), and hydrogen (2.5%). Each microcosm was loaded with the inoculum, which comprised cells from the TCE-dechlorinating culture (1 L), cells from TAN-25 groundwater (1 L), and TAN-37 groundwater (2.5 L) as the media.
The culture cells were used to ensure a robust dechlorinating community was present, and cells were collected from TAN-25 groundwater to ensure the laboratory community was representative of the community at TAN. […] The cell pellets from the dechlorinating culture and TAN-25 groundwater were separated from the supernatant because both contained electron donors, including propionate, acetate, and lactate. TAN-37 groundwater was selected as the medium because it was anaerobic groundwater that contained little or no carbon (40 mg/L as COD with <2.5 ppm acetate and propionate) that might interfere with the evaluation of electron donor utilization. The inoculum mixture was then spiked with TCE (10 ppm), aliquoted (100 mL) into the microcosms, and each respective electron donor was added (˜200 ppm for all electron donors except whey powder [˜400 ppm]). The microcosms were then sealed with butyl-rubber septa and crimped. The headspace of each microcosm was flushed for 10 minutes with 100% nitrogen, and then an initial positive pressure of 5 psig was induced into each one. […] The test microcosms were prepared in triplicate and negative control microcosms were amended with whey powder and LactOil™/propionate. The study included a total of 20 microcosms.
Three months after inoculation, additional electron donor was added to all of the microcosms (200 to 300 mg/L as COD). […] At this point, approximately 50 mL of TAN-37 groundwater was also amended to all of the biotic microcosms to replace the volume lost because of sampling. This was done by placing all of the biotic microcosms into the anaerobic chamber containing nitrogen (95%), carbon dioxide (2.5%), and hydrogen (2.5%); removing the septum; adding TAN-37 groundwater and electron donor; and replacing septum and spiking each microcosm with a TCE stock solution. TCE was amended to all of the microcosms 4 and 6 months after inoculation.
Throughout these studies, the microcosms were monitored monthly for TCE, cis-DCE, trans-DCE, VC, ethene, ethane, methane, lactate, acetate, propionate, butyrate, pH, and Eh. […] Analytical samples (6 mL) were removed using a glass syringe (Hamilton Co., Reno, Nev.) and a 22-gauge sterile needle.

[3] = Interfacial tension between electron donor solutions and nonaqueous phase TCE (pendant drop); assay type: physicochemical; details: 0% ethyl lactate
Description: Based on the field results presented in Example 1, laboratory studies were preformed to confirm that the enhanced bioavailability of TCE observed in the field was due to co-solvent or surfactant behavior resulting from the use of high concentrations of sodium lactate. Two fundamental properties used to screen the co-solvent or surfactant properties of a solution are surface tension and interfacial tension. Surface tension measures the force per unit length along the interface between a liquid and air due to its tension. When a co-solvent or surfactant is present in an aqueous liquid at increasing concentrations, the surface tension of that liquid decreases. Interfacial tension is similar to surface tension except that it measures the force per unit length along the interface between two liquid phases arising from the surface free energy. The higher the interfacial tension between two liquids, the less likely one is to dissolve into the other, and the more difficult it is for one to be transported within the other. […]
The laboratory study performed to confirm the co-solvent properties of the high concentration electron donor solution measured the surface tension of electron donor solutions at various concentrations. Next, interfacial tensions between the same electron donor solutions and nonaqueous phase TCE were measured. […]

[4] = Field evaluation of enhanced in situ bioremediation at Test Area North (sodium lactate injection)
Description: A 1-year field evaluation of enhanced in situ bioremediation was performed at Test Area North (“TAN”) of the Idaho National Engineering and Environmental Laboratory. […] The locations of a 5,000 μg/L TCE isopleth (14); 1,000 μg/L TCE isopleth (16); 100 μg/L TCE isopleth (18); and 5 μg/L TCE isopleth (20) are shown by solid lines. FIG. 2 illustrates a cross section of this site, showing the surface of the ground (22), an approximately 63-m (210-feet) fractured basalt unsaturation zone (24) (not drawn to scale), an approximately 60-m (200-feet) fractured basalt aquifer (26), and an impermeable clay interbed (28). […]
The initial electron donor addition strategy involved continuous injection of potable water at 37.85 liters/minute (10 gpm) into Well TSF-05. […] It was determined that the continuous injection of clean water at 37.85 liters/minute (10 gpm) overwhelmed the flux of contaminants from the secondary source. […] This was intended to prevent significant quantities of electron donor from collecting in the injection well and to help prevent biofouling. […]
Eleven monitoring wells (i.e., TAN-D2, TAN-9, TAN-10A, TAN-25, TAN-26, TAN-27, TAN-28, TAN-29, TAN-30A, TAN-31, and TAN-37) were sampled biweekly and analyzed for electron donors, biological activity indicators, competing inorganic electron acceptors and their reduced products, chloroethenes, ethene, pH, temperature, and specific conductivity.

Row | effect on the solution's surface tension ([1]; addition of 1% and 10% ethyl lactate to the different sodium lactate solutions) | SMILES | accumulated cis-DCE, average concentration ([2]; 1 month after inoculation) [ppb] | methane accumulated, average ([2]; between 6 and 7 months) [µM] | methane concentration generated ([2]; in 3 months) | TCE remaining ([2]; one month after TCE re-addition, only ethene present) | TCE remaining ([2]; three months after inoculation, only ethene detected) | ethene production as share of amended TCE ([2]; two months after inoculation) [%] | interfacial tension as % of the value at a sodium lactate concentration of 0.1% ([3]; sodium lactate 30%) [%] | decrease of interfacial tension ([3]; sodium lactate increased from 0.1 to 3%) | change in surface tension ([1]; sodium lactate concentration increased to 30 and 60%) | change in surface tension ([1]; sodium lactate concentrations from 0.01 to 7%) | reductive dechlorination of TCE to ethene ([4]; all wells receiving significant lactate concentrations) | TCE concentrations deep in the aquifer soon after addition began ([4]; well TAN-26)
1 | pronounced effect | CCOC(=O)C(C)O (stereo not shown) [ethyl lactate] | – | – | – | – | – | – | – | – | – | – | – | –
2 | – | CC(O)C(=O)[O-].[Na+] (stereo not shown) [sodium lactate] | 75 | 21 | approximately 50 μM | all of the TCE was gone | all of the TCE was gone | 10 | 47 | about 26% | dramatic decrease | almost no change | Enhanced reductive dechlorination of TCE to ethene was observed | dramatic increase
